Data published in the CheMixHub viscosity set.
“And” between values parts separate entries of the source, which are not always exact repeats. Equal values may be shown once.

Assay: xn = mol fraction of the nth substance listed

CC(C)(C)N + NC1CCCCC1
298.15 K, 101 kPa
Settings	viscosity [mPa·s]
x2 = 0.0757	0.569
x2 = 0.1557	0.7445
x2 = 0.2401	0.9554
x2 = 0.3296	1.173
x2 = 0.4244	1.407
x2 = 0.5252	1.612
x2 = 0.6324	1.785
x2 = 0.7468	1.894
x2 = 0.8691	1.915

CCCCCCCCO + NCCO
viscosity [mPa·s], 101.3 kPa
Settings	x2 = 0.1	x2 = 0.2	x2 = 0.3	x2 = 0.4	x2 = 0.5	x2 = 0.6	x2 = 0.7	x2 = 0.8	x2 = 0.9
303.15 K	6.48	6.8	7.36	8.14	9.01	9.97	11	12.1	13.4
313.15 K	4.68	4.93	5.28	5.77	6.27	6.83	7.48	8.16	8.98
323.15 K	3.49	3.68	3.92	4.23	4.55	4.9	5.34	5.79	6.29

BrC(Br)Br + Nc1ccccc1
298.15 K, 101 kPa
Settings	viscosity [mPa·s]
x1 = 0.1402	3.373
x1 = 0.2067	3.235
x1 = 0.3151	3.026
x1 = 0.4133	2.856
x1 = 0.5137	2.657
x1 = 0.614	2.486
x1 = 0.701	2.349
x1 = 0.808	2.196

BrC(Br)Br + Nc1ccccc1Cl
viscosity [mPa·s], 101 kPa
Settings	x1 = 0.1006	x1 = 0.1969	x1 = 0.3023	x1 = 0.3984	x1 = 0.5023	x1 = 0.5997	x1 = 0.6951	x1 = 0.8013	x1 = 0.8983
298.15 K	2.948	2.901	2.784	2.699	2.585	2.453	2.342	2.208	2.096
303.15 K	2.693	2.616	2.509	2.425	2.326	2.244	2.15	2.045	1.955
308.15 K	2.378	2.33	2.267	2.197	2.122	2.065	1.981	1.896	1.82
313.15 K	2.122	2.102	2.062	1.995	1.96	1.896	1.831	1.764	1.697

C[C@@H](O)[C@H](N)C(=O)O + O
101 kPa
Settings	viscosity [mPa·s]
293.15 K, x1 = 0.001804	1.036
293.15 K, x1 = 0.0107	1.226
298.15 K, x1 = 8.95e-05	0.9002
298.15 K, x1 = 0.0001801	0.9048
298.15 K, x1 = 0.001819	0.9278
298.15 K, x1 = 0.003526	0.9547
298.15 K, x1 = 0.005296	0.9865
298.15 K, x1 = 0.007341	1.02
298.15 K, x1 = 0.008519	1.047
298.15 K, x1 = 0.01104	1.075
298.15 K, x1 = 0.01269	1.105
298.15 K, x1 = 0.01399	1.136
303.15 K, x1 = 0.007153	0.904
303.15 K, x1 = 0.01245	0.9968
305.15 K, x1 = 0.00036	0.788
305.15 K, x1 = 0.0007203	0.7937
305.15 K, x1 = 0.00108	0.7998
305.15 K, x1 = 0.001439	0.8055
305.15 K, x1 = 0.001798	0.8106
305.15 K, x1 = 0.002157	0.8163
308.15 K, x1 = 8.95e-05	0.7885
308.15 K, x1 = 0.0001801	0.7945
308.15 K, x1 = 0.001819	0.8025
308.15 K, x1 = 0.003526	0.8241
308.15 K, x1 = 0.005296	0.8417
308.15 K, x1 = 0.007341	0.8612
308.15 K, x1 = 0.008519	0.8741
308.15 K, x1 = 0.01104	0.9001
308.15 K, x1 = 0.01269	0.9289
308.15 K, x1 = 0.01399	0.9456
310.15 K, x1 = 0.00036	0.707
310.15 K, x1 = 0.0007203	0.7122
310.15 K, x1 = 0.00108	0.7174
310.15 K, x1 = 0.001439	0.7223
310.15 K, x1 = 0.001798	0.7263
310.15 K, x1 = 0.002157	0.7313
313.15 K, x1 = 0.008929	0.758
313.15 K, x1 = 0.0107	0.7828
313.15 K, x1 = 0.01245	0.8054
315.15 K, x1 = 0.00036	0.6527
315.15 K, x1 = 0.0007203	0.6576
315.15 K, x1 = 0.00108	0.6612
315.15 K, x1 = 0.001439	0.6656
315.15 K, x1 = 0.001798	0.6694
315.15 K, x1 = 0.002157	0.6737
318.15 K, x1 = 8.95e-05	0.6814
318.15 K, x1 = 0.0001801	0.6945
318.15 K, x1 = 0.001819	0.7042
318.15 K, x1 = 0.003526	0.7214
318.15 K, x1 = 0.005296	0.7356
318.15 K, x1 = 0.007341	0.7565
318.15 K, x1 = 0.008519	0.7645
318.15 K, x1 = 0.01104	0.7898
318.15 K, x1 = 0.01269	0.8045
318.15 K, x1 = 0.01399	0.8214
323.15 K, x1 = 0.00359	0.5782
323.15 K, x1 = 0.007153	0.6118

O=C([O-])CC(O)(CC(=O)[O-])C(=O)[O-].[NH4+].[NH4+].[NH4+] + O
viscosity, 101 kPa
Settings	298.15 K	308.15 K	318.15 K
x1 = 0.004	0.9957 mPa·s	0.814 mPa·s	0.685 mPa·s
x1 = 0.007	1.13 mPa·s	0.923 mPa·s	0.7741 mPa·s
x1 = 0.01	1.283 mPa·s and 1.49 mPa·s	1.048 mPa·s and 1.211 mPa·s	0.8784 mPa·s and 1.01 mPa·s

O=S(=O)([O-])c1ccccc1.[Na+] + O
viscosity [mPa·s], 101 kPa
Settings	x1 = 9e-05	x1 = 0.00018	x1 = 0.0009	x1 = 0.0018	x1 = 0.00448	x1 = 0.00893	x1 = 0.0133	x1 = 0.0177
298.15 K	0.898	0.899	0.915	0.932	0.98	1.073	1.17	1.273
318.15 K	0.598	0.599	0.609	0.619	0.648	0.705	0.762	0.825

O=[N+]([O-])[O-].O=[N+]([O-])[O-].[Cd+2] + O
viscosity [mPa·s], 101.3 kPa
Settings	x1 = 0.0009	x1 = 0.0018	x1 = 0.00893	x1 = 0.0177	x1 = 0.02631	x1 = 0.03478	x1 = 0.05127	x1 = 0.06722	x1 = 0.08263
293.15 K	1.02	1.036	1.166	1.363	1.607	1.912	2.746	3.964	5.664
298.15 K	0.9069	0.9215	1.041	1.219	1.437	1.708	2.443	3.496	4.949
303.15 K	0.8129	0.8263	0.936	1.097	1.293	1.537	2.189	3.11	4.364
308.15 K	0.7336	0.7459	0.8471	0.994	1.171	1.391	1.975	2.789	3.882
313.15 K	0.6664	0.678	0.7712	0.9059	1.067	1.267	1.792	2.521	3.48
318.15 K	0.6085	0.6193	0.7057	0.8296	0.977	1.16	1.637	2.288	3.143
323.15 K	0.5582	0.568	0.6484	0.7627	0.8979	1.066	1.502	2.093	2.855
